Data published in patent publication US20130065760A1, “Substituted Pyridines Having Herbicidal Action” (BASF SE, priority 2010, published 2013).

Tested on: AMARE
Test: greenhouse experiment, post-emergence treatment, herbicidal activity
Assay type: in vivo, Amaranthus retroflexus
Conditions: post-emergence method, application rate 0.5 kg/ha, scale from 0 to 100
Description: The seeds of the test plants were sown separately for each species. For the post-emergence treatment, the test plants were first grown to a height of 3 to 15 cm, depending on the plant habit, and only then treated with the active ingredients which had been suspended or emulsified in water. For this purpose, the test plants were either sown directly and grown in the same containers, or they were first grown separately as seedlings and transplanted into the test containers a few days prior to treatment. Depending on the species, the plants were kept at 10-25° C. or 20-35° C. The test period extended over 2 to 4 weeks. During this time, the plants were tended, and their response to the individual treatments was evaluated. Evaluation was carried out using a scale from 0 to 100. 100 means no emergence of the plants, or complete destruction of at least the aerial moieties, and 0 means no damage, or normal course of growth. A good herbicidal activity is given at values of at least 70 and a very good herbicidal activity is given at values of at least 85. The plants used in the greenhouse experiments belonged to the following species: [table]

3-[5-chloro-3-morpholino-2-(trifluoromethyl)phenyl]-1-(2,2-difluoroethyl)-4-hydroxy-1,5-naphthyridin-2-one [I-3]
herbicidal activity against AMARE: very good (a very good herbicidal activity is given at values of at least 85)
